Results reported in patent publication US20240392241A1, “METHOD FOR PRODUCING CELL MASS INCLUDING PITUITARY TISSUE AND CELL MASS” (SUMITOMO CHEMICAL COMPANY, LIMITED, priority 2021, published 2024).

Tests used:
[1] = system: cell mass derived from human iPS cell line 201B7; assay: ACTH concentration in culture medium of cell masses by ELISA (Example 4); format: cell-based; conditions: for ACTH concentration in the medium compared with JNK inhibitor non-addition conditions: 1 μM from day 0; for ACTH concentration in the medium vs non-addition condition: 3 μM
Experimental: In Example 4, according to step shown in FIG. 4A, a cell population including cells that constitute pituitary tissue was produced. Specifically, the culture supernatant of a cell mass derived from human iPS cell line 201B7 prepared by the method described in Example 3 was collected over time, and the amount of ACTH secreted per cell mass was measured. As a specific measurement method, cell masses containing pituitary tissue were prepared under four conditions: from day 0 to day 30 of differentiation induction, conditions in which the JNK inhibitor JNK—IN-8 was added at 1 μM, 3 μM, or 10 μM, and no addition control. […] Thereafter, the cell masses prepared by adding 1 μM or 3 μM of JNK—IN-8 and the non-addition control were suspension cultured in a 10 cm dish with 20 ml of medium, and half of the medium was replaced every 3 to 4 days. The culture supernatant was collected before replacement of a half-volume of the medium on days 61, 103, 152, and 201 of differentiation induction, and frozen at −150° C. When all samples were collected, the ACTH concentration in the recovered medium was measured by the ELISA method used in clinical testing (testing outsourced to SRL, Ltd.). Based on the obtained ACTH concentration data (pg/mL), the total number of cell masses at the time of sampling and the total amount of culture medium were corrected to the ACTH concentration under the conditions where 20 cell masses were cultured in 20 ml of medium, and shown in a graph. A similar experiment was performed twice.
As a result, the ACTH concentration in the medium was about 5 times as high on day 61 of differentiation induction, about 2 times as high on days 103 and 152 of differentiation induction, and about 1.3 times as high on day 201 of differentiation induction under the conditions in which 1 μM JNK—IN-8 was added from day 0 of differentiation induction, compared with the JNK inhibitor non-addition conditions. Under the conditions in which 3 μM JNK—IN-8 was added, the ACTH concentration in the medium was higher on days 61 and 103 of differentiation induction than that in the non-addition condition, but lower on days 152 and 201 of differentiation induction than that in the non-addition condition. From the above results, it was shown that the addition of a JNK inhibitor improves the ACTH secretory capacity per cell mass in differentiation induction of pituitary tissue from pluripotent stem cells, and that the concentration of the JNK inhibitor to be added is preferably not more than 3 μM (FIG. 4B).

[2] = system: human iPS cells (HC-6 #10 strain); assay: Pituitary organoid differentiation from human iPS cells, phase contrast observation of cell mass (Example 1); format: cell-based; conditions: JNK—IN-8 1 μM from day 0
Experimental: Human iPS cells (HC-6 #10 strain, obtained from RIKEN) were cultured under feeder-free conditions according to the method described in Scientific Reports, 4, 3594 (2014). As the feeder-free medium, StemFit medium (manufactured by Ajinomoto Co., Inc.) was used and, as the feeder-free scaffold, Laminin 511-E8 (manufactured by Nippi, Inc.) was used.
As specific maintenance culturing operation, subconfluent human iPS cells (HC-6 #10 strain) were first washed twice with 0.5 mM EDTA/PBS and further treated with 5 mM EDTA/PBS at 37° C. for 10 min. After pipetting, the cells were scraped from the surface of the culture dish and dispersed into single cells. Thereafter, the human iPS cells dispersed into single cells were seeded in a plastic culture dish coated with Laminin 511-E8, and cultured under feeder-free conditions in StemFit medium in the presence of Y-27632 (ROCK inhibiting substance, manufactured by FUJIFILM Wako Pure Chemical Corporation, 10 μM). When a 6-well plate (manufactured by Corning, for cell culturing, culture area 9.5 cm^2) was used as the plastic culture dish, the number of plated cells of the human iPS cells dispersed into single cells was adjusted to 7×10^3. One day after seeding, the entire amount of the medium was changed with StemFit medium free of Y-27632. Thereafter, once in 1-2 days, the entire amount of the medium was changed with StemFit medium free of Y-27632. […]

- state of cell mass ([1]; 10 μM added from day 0 to day 30 of differentiation induction): collapse of cell mass
Structure (SMILES): Cc1cc(NC(=O)c2cccc(NC(=O)/C=C/CN(C)C)c2)ccc1Nc1nccc(-c2cccnc2)n1 [JNK—IN-8, (E)-3-(4-(dimethylamino)but-2-enamido)-N-(3-methyl-4-((4-(pyridin-3-yl)pyrimidin-2-yl)amino)phenyl)benzamide]
- ACTH concentration in the medium compared with JNK inhibitor non-addition conditions ([1]; day 61 of differentiation induction): about 5 times
- ACTH concentration in the medium compared with JNK inhibitor non-addition conditions ([1]; day 201 of differentiation induction): about 1.3 times
- ACTH concentration in the medium compared with JNK inhibitor non-addition conditions ([1]; days 103 and 152 of differentiation induction): about 2 times
- ACTH concentration in the medium vs non-addition condition ([1]; days 61 and 103 of differentiation induction): higher
- ACTH concentration in the medium vs non-addition condition ([1]; days 152 and 201 of differentiation induction): lower
- differentiation efficiency (surface covered with nonneural epithelial/placode-like tissue, unintended cells suppressed) ([2]; day 28, vs no addition): improved
- size of the cell mass, smaller in diameter than without addition of JNK inhibitor ([2]; day 28 of suspension culture): about 100 μm
